According to article PMC3591448, “Profile of the GSK Published Protein Kinase Inhibitor Set Across ATP-Dependent and-Independent Luciferases: Implications for Reporter-Gene Assays” (PLoS ONE, 2013):
Read-outs that look alike come from different tables or passages of the source.

Experiments:
[1] = biological target: firefly luciferase, Photinus pyralis (FLuc) (Photinus pyralis, UniProt P08659); assay: biochemical; type: biochemical; settings: for FLuc Parameters Hill Coef: Hill equation fit of CRC; for Emax: response relative to PTC124 control inhibitor, negative = inhibition, read-out: FLuc Parameters Efficacy
Protocol: (§1) The bioluminescence outputs were measured by an EnVision reader (PerkinElmer, Wellesley, MA). Due to the relatively short luminescence duration of the RLuc assay, dispense time constants were set to match closely to the read time of the plate reader. As a result, each individual well was read with approximately the same time delay from reagent dispense to signal acquisition. See Table 1 for the 1536-well assay protocols.
(§2) Data from each assay was normalized plate-wise to corresponding intraplate controls as described previously, [17]. The same control data sets were also used for the calculation of Z′ factors from each assay. In all assays, wells containing DMSO were used as no-response controls. For the FLuc enzymatic assay, each compound-treated well on the plate was normalized to the average readings of n = 24 PTC124 treated wells and n = 48 DMSO wells from the same plate. Wells were scaled to a full range of DMSO and zero, and then normalized using the maximum response observed in the screen as 100% activity. For the RLuc enzymatic assay, n = 24 BTS treated wells for the positive control, n = 48 DMSO. MSR values were calculated using the cumulative potency differences of the de-interleaved duplicate control titrations from each plate as previously described. The normalized data from each assay plate set was corrected using DMSO-only treated assay plates read at the start and end of each assay run, and the resulting inter-plate titration data fit, using in-house software, to the standard Hill equation and dose-response curves automatically classified as described previously.
(§3) The curve classification scheme for assignment of resulting curve-fit data into CRC classes was according to Inglese et al. as follows: class 1 curves (far left) display two asymptotes, an inflection point, and r^2≥0.9; subclasses 1a vs. 1b are differentiated by full (>80%) vs. partial (≤80%) response. Class 2 curves (second from left) display a single left-hand asymptote and inflection point; subclasses 2a (or 2.1) and 2b (2.2) are differentiated by a max response and r^2, >80% and >0.9 or <80% and <0.9, respectively. Class 3 curves (second from right) have a single left-hand asymptote, no inflection point, and a response >3SD from the mean activity of the sample field.

[2] = biological target: T1, Renilla luciferase (RLuc) (Renilla reniformis, UniProt P27652); assay: RLuc enzymatic assay (purified enzyme, qHTS, 1536-well); type: biochemical; settings: 1 nM RLuc, 5 µM coelenterazine-H
T1 sequence (P27652 1-311): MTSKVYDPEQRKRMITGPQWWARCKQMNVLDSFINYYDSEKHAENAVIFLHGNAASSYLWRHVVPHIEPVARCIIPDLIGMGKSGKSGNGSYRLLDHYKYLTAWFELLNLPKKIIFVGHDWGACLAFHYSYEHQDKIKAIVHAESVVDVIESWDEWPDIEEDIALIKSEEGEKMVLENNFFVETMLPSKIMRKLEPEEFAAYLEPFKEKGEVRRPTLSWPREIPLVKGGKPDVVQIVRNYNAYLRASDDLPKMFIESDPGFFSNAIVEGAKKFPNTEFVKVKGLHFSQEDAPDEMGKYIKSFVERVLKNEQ
Protocol: as §1, with “1 µL of purified luciferase was then dispensed into each well for final concentrations 10 nM FLuc or 1 nM RLuc. The” for “The”
as §2, §3

[3] = test system: GSK3β; settings: ref Peat, A. J., et al., 2004; read-out: PKI IC50 (µM), GSK3β; cited from earlier work
[4] = test system: VEGFR; design: method as in Sammond, D.M., et al. 2005; settings: ref Sammond, D.M., et al. 2005; read-out: PKI IC50 (µM), VEGFR; cited from earlier work
[5] = test system: LCK; design: method as in Bamborough, P., et al. 2007; settings: ref Bamborough, P., et al. 2007; read-out: PKI IC50 (µM), LCK; cited from earlier work
[6] = test system: TRKA; design: method as in Wood, E.R., et al. 2004; settings: ref Wood, E.R., et al. 2004; read-out: PKI IC50 (µM), TRKA; cited from earlier work
[7] = test system: RHO; design: method as in Stavenger, R. A., et al. 2007; settings: ref Stavenger, R. A., et al. 2007; read-out: PKI IC50 (µM), RHO; cited from earlier work
[8] = test system: JNK3; design: method as in Angell, R.M., et al. 2007; settings: ref Angell, R.M., et al. 2007; read-out: PKI IC50 (µM), JNK3; cited from earlier work
[9] = test system: CDK2; settings: ref Bramson, H. N., et al., 2001; read-out: PKI IC50 (µM), CDK2; cited from earlier work
[10] = test system: p38; design: method as in Angell, R.M., et al. 2008; settings: ref Angell, R.M., et al. 2008; read-out: PKI IC50 (µM), p38; cited from earlier work
[11] = Figure 2b, representative structures of clusters
[12] = 10 nM FLuc, 10 µM D-luciferin, 10 µM ATP, read-out: FLuc Parameters IC50
[13] = Figure 3, read-out: IC50 (FLuc)
[14] = Figure 4b, read-out: FLuc (IC50)
[15] = Figure 2b, representative structures of clusters, read-out: FLuc IC50

Chain of firefly luciferase, Photinus pyralis (FLuc) (P08659 whole entry): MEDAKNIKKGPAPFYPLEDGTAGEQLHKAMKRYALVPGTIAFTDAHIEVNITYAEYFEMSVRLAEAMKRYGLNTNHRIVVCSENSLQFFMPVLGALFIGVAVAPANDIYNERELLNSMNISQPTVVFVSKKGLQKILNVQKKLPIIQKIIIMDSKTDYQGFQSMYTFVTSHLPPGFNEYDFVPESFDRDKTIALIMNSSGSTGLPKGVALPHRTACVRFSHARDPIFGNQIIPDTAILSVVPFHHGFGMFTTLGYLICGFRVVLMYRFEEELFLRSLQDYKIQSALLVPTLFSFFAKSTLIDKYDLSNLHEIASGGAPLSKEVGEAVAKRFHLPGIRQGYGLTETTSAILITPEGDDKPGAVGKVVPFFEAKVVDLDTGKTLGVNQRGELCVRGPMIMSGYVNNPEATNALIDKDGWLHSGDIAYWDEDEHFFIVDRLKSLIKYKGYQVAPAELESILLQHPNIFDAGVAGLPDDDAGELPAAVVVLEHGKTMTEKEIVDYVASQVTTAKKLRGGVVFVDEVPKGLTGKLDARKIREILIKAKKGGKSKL

| SMILES | IC50 [1, 12] [nM] | FLuc Parameters Hill Coef [1] | IC50 ([1]; Table 3, read-out: FLuc IC50) [nM] | Emax [1] [%] | RLuc Curve Class [2] | other results |
| --- | --- | --- | --- | --- | --- | --- |
| O=C1NC(=O)C(c2ccc(Cl)cc2)=C1Nc1ccc(Cl)c(C(=O)O)c1 [SB-360741] | – | – | – | – | – | FLuc IC50 [1, 11]: inactive |
| COc1cc(/C=N/Nc2ncnc3[nH]ncc23)ccc1O [GW578748X] | 3660 | 1.33 | 3660 | 82.3 | 4 | IC50 [1, 13]: 3700 nM; IC50 [3]: 3.16 µM |
| COC(=O)Nc1nc2ccc(Oc3ccc(NC(=O)Nc4cccc(Cl)c4)cc3)cc2[nH]1 [GW589961A] | – | – | – | – | – | IC50 [1, 13]: > 30000 nM |
| COc1ccc(-c2ccc3c(NC(=O)C4CC4)n[nH]c3n2)cc1 [SB-711237] | 2310 | 0.8 | 2310 | 44.8 | 4 | – |
| CN(c1ccc(NC(=O)Nc2c(Cl)cccc2Cl)cc1)c1ccnc(Nc2cccc(CS(C)(=O)=O)c2)n1 [GW809897X] | 580 | 1.11 | 580 | 109 | 4 | IC50 [1, 14]: 560 nM; IC50 [4]: 0.065 µM |
| COC(=O)Nc1nc2ccc(Oc3ccc(NC(=O)Nc4cccc(C(=O)O)c4)cc3)cc2[nH]1 [GW701427A] | 120 | 1.69 | 120 | 102 | – | – |
| COc1cc(/C=N/Nc2ncnc3c2cnn3C(C)C)ccc1O [GW644007X] | 5800 | 1.86 | 5800 | 40.7 | 4 | IC50 [3]: 2.51 µM |
| COc1cccc(-n2ncc3c(N/N=C/c4ccc(C(=O)NCCN(C)C)cc4)ncnc32)c1 [GW784307A] | – | – | – | – | – | IC50 [1, 13]: 16000 nM |
| NC(=O)c1cccc(Nc2nccc(Nc3cccc(F)c3)n2)c1 [GW759710A] | 730 | 1.21 | 730 | 98.6 | 4 | IC50 [5]: 3.3 µM |
| CCc1cccc(NC(=O)Nc2ccc(Oc3ccc4nc(NC(=O)OC)[nH]c4c3)cc2)c1 [GW673715X] | – | – | – | – | – | IC50 [1, 13]: > 30000 nM |
| c1ccc(Nc2ncc(-c3ccccc3)o2)cc1 [GW549390X] | 260 | 1.1 | 260 | 98.6 | 4 | – |
| CCN(CC)S(=O)(=O)c1ccc(OC)c(Nc2ncc(-c3ccccc3)o2)c1 [GW572401X] | – | – | – | – | – | IC50 [1, 13]: > 20000 nM |
| COC(=O)Nc1nc2cc(Oc3ccc(NC(=O)Nc4cccc(Br)c4)cc3)ccc2[nH]1 [GW694234A] | – | – | – | – | – | IC50 [1, 13]: > 30000 nM |
| O=C1Nc2ccccc2/C1=C/Nc1ccc2[nH]c(=O)[nH]c2c1 [GW284408X] | 4110 | 1.93 | 4110 | 37.9 | 4 | IC50 [6]: 0.007 µM |
| O=C(Nc1n[nH]c2cc(-c3ccccc3)ccc12)C1CC1 [SB-732941] | – | – | – | – | – | IC50 [1, 15]: 18000 nM |
| COc1ccc(Nc2ncc(-c3ccccc3)o2)cc1OC [GW575533A] | 5800 | 1.17 | 5800 | 90 | 4 | – |
| O=C1Nc2ccccc2/C1=C1\CCc2cc(O)ccc21 [GR105659X] | 5170 | 1.01 | 5170 | 103 | – | IC50 [6]: 0.006 µM |

| SMILES | IC50 [1, 12] [nM] | FLuc Parameters Hill Coef [1] | IC50 ([1]; Table 3, read-out: FLuc IC50) [nM] | Emax [1] [%] | RLuc Curve Class [2] | other results |
| --- | --- | --- | --- | --- | --- | --- |
| CCn1c(-c2nonc2N)nc2cnc(Oc3cccc(NC(=O)c4ccc(N(C)C)cc4)c3)cc21 [GSK248233A] | 1030 | 0.9 | 1030 | 98.9 | 4 | IC50 [1, 14]: 1000 nM; IC50 [7]: 0.002 µM |
| Cc1cccc(Nc2ncc(-c3ccccc3)o2)c1 [GW632046X] | 580 | 1.11 | 580 | 104 | 4 | – |
| N#Cc1cccc(Nc2ncc(-c3ccccc3)o2)c1 [GW627834A] | 1030 | 1.21 | 1030 | 84.1 | 4 | IC50 [1, 15]: 1000 nM |
| COc1cccc(-c2c[nH]c3c(N/N=C/c4ccncc4)ncnc23)c1 [GW814408X] | – | – | – | – | – | IC50 [1, 15]: 6000 nM; IC50 [1, 14]: 5800 nM |
| COc1cccc(-n2ncc3c(N/N=C/c4ccncc4)ncnc32)c1 [GW784752X] | – | – | – | – | – | IC50 [1, 13]: 6500 nM |
| COc1cccc(-n2ncc3c(N/N=C/c4ccc(F)cc4)ncnc32)c1 [GW817396X] | – | – | – | – | – | IC50 [1, 13]: 33000 nM |
| N#Cc1c(NC(=O)c2ccc(F)cc2)sc2c1CCCC2 [SB-347804] | 920 | 1.48 | 920 | 72.5 | 4 | IC50 [8]: 3.16 µM |
| N#Cc1c(NC(=O)c2ccccc2F)sc2c1CCCC2 [GW572738X] | 820 | 1.66 | 820 | 82.6 | 4 | IC50 [8]: 0.4 µM |
| C/C(Nc1ccc(S(N)(=O)=O)cc1)=C1/C(=O)Nc2ccccc21 [GW335962X] | 3660 | 1.51 | 3660 | 68.8 | 4 | IC50 [9]: 0.36 µM |
| O=C(NCC1CC1)c1ccc(-c2cccc(C(=O)NC3CC3)c2)cc1 [GW806776X] | 9190 | 1.51 | 9190 | 35.2 | – | IC50 [10]: 0.075 µM |
| Cc1ccc(Nc2ccnc(Nc3cccc(C(N)=O)c3)n2)cc1O [GW575808A] | 1460 | 1.54 | 1460 | 106 | 4 | IC50 [5]: 0.19 µM |
| CS(=O)(=O)CCNCc1coc(-c2ccc3ncnc(Nc4ccc(OCc5ccccc5)cc4)c3c2)c1 [GW566221A] | – | – | – | – | – | IC50 [1, 15]: 12000 nM |
| CC(C)c1ccc2c(c1)NC(=O)C2=NNc1ccc(S(N)(=O)=O)cc1 [GW300653X] | – | – | – | – | – | FLuc IC50 [1, 11]: Inactive |
| COc1cc(Nc2ncc(-c3ccccc3)o2)cc(OC)c1 [GW631581B] | 6510 | 1.29 | 6510 | 88.5 | 4 | – |
| COc1cccc(-n2cnc3c(N/N=C/c4ccncc4)ncnc32)c1 [GW813360X] | – | – | – | – | – | IC50 [1, 13]: 16000 nM |
| COC(=O)Nc1nc2cc(Oc3ccc(NC(=O)Nc4ccccc4)cc3)ccc2[nH]1 [GW694590A] | – | – | – | – | – | IC50 [1, 15]: 15000 nM; IC50 [1, 13]: 14600 nM; IC50 [1, 14]: 14000 nM |
| NS(=O)(=O)c1cccc(N/C=C2\C(=O)Nc3ccccc32)c1 [GW275616X] | – | – | – | – | – | IC50 [1, 15]: 18000 nM |
